According to patent publication US20060240021A1, “Mammalian genes involved in rapamycin resistance and tumorgenesis: rapr7 genes” (priority 2002, published 2006):

Tested on: N2a cells
Assay: MTT proliferation assay, rapamycin mediated cell growth inhibition of N2a cells
Assay type: cell-based, mouse
Conditions: FIG. 7
Text: FIG. 7 illustrates sensitivity of the N2a cell line to the growth inhibitory effect of rapamycin.
In a preferred embodiment, an MTT proliferation assay (see, e.g., van de Loosdrechet, et al., 1994, J. Immunol. Methods 174: 311-320; Ohno et al., 1991, J. Immunol. Methods 145:199-203; Ferrari et al., 1990, J. Immunol. Methods 131: 165-172; Alley et al., 1988, Cancer Res. 48: 589-601; Carmichael et al., 1987, Cancer Res. 47:936-942; Gerlier et al., 1986, J. Immunol. Methods 65:55-63; Mosmann, 1983, J. Immunological Methods 65:55-63) is used to screen for a candidate agent in conjunction with rapamycin to inhibit the growth of rapamycin resistant cells. The cells are treated with chosen concentrations of the candidate agent and rapamycin for 4 to 72 hours. The cells are then incubated with a suitable amount of 3-(4,5-dimethylthiazol-2-yl)-2,5-diphenyltetrazolium bromide (MTT) for 1-8 hours such that viable cells convert MTT into an intracellular deposit of insoluble formazan. After removing the excess MTT contained in the supernatant, a suitable MTT solvent, e.g., a DMSO solution, is added to dissolved the formazan. The concentration of […], which is proportional to the number of viable cells, is then measured by determining the optical density at […]. […]

## CO[C@H]1C[C@@H]2CC[C@@H](C)[C@@](O)(O2)C(=O)C(=O)N2CCCC[C@H]2C(=O)O[C@H]([C@H](C)C[C@@H]2CC[C@@H](O)[C@H](OC)C2)CC(=O)[C@H](C)/C=C(\C)[C@@H](O)[C@@H](OC)C(=O)[C@H](C)C[C@H](C)/C=C/C=C/C=C/1C [rapamycin, 9,10,12,13,14,21,22,23,24,25,26,27,32,33,34,34a-hexadecahydro-9,27-dihydroxy-3-[2-(4-hydroxy-3-methoxycyclohexyl)-1-methylethyl]-10,21-dimethoxy-6,8,12,14,20,26-hexamethyl-23,27-epoxy-3H-pyrido[2,1-c][1,4]oxaazacyclohentricontine-1,5,11,28,29(4H,6H,31H)-pentone]
N2a cell line
  rapamycin concentration at which the growth of N2a cells is completely inhibited: ≥ 1 µM
Mouse neuroblastoma N2a cells, MTT assay
  rapamycin concentration at which N2a cells are sensitive to cell growth inhibition: 10 nM
